In brackets after ≈: the same amount, converted by molar mass. Activity calls are given as the source filed them. The calls are words filed in the database; no cut-off is given here.
Tests used:
[1] = Growth inhibition of mouse 3T3 cells; format: cell-based; settings: NIH3T3 cells
[2] = species: Mus musculus; experiment: Cicatrizant activity in mouse assessed as wound healing by tensile strength method; format: functional

| Structure (SMILES) | GI50 [1] | ED50 [2] |
| --- | --- | --- |
| CC(C)=CCC[C@](C)(O)[C@H]1CC=C(C)CC1 | 8 µg/mL (≈ 36 µM) |  |
| COc1ccc2c(=O)oc3c(OC)cc(CCN(C)C)c4c(=O)oc1c2c34 [TASPINE] |  | 15 mg/kg |
| CC(C)=CCC/C(C)=C/CC/C(C)=C/CO |  | inactive |
| CC1=CC[C@@H](C(C)(C)O)CC1 [ALPHA-TERPINEOL] | 17 µg/mL (≈ 110 µM) | 240 mg/kg |
| CC(C)=CCC[C@](C)(O)[C@@H]1CC=C(C)CC1 [LEVOMENOL] | 84 µg/mL (≈ 378 µM) | 228 mg/kg |
| C=CC(C)(O)CC/C=C(\C)CCC=C(C)C (stereo not drawn) |  | inactive |

Reference: ChEMBL document CHEMBL1156368, “(+)-epi-Alpha-bisabolol [correction of bisbolol] is the wound-healing principle of Peperomia galioides: investigation of the in vivo wound-healing activity of related terpenoids” (J Nat Prod, 2001)
